{
  "source": "patent US20150315247A1",
  "about": "“High-affinity peptide-based anticancer vaccination to overcome tumor resistance to immunostimulatory antibodies and to identify TCRs that can be used successfully in adoptive T cell therapy” (priority 2014, published 2015)",
  "origin": "cited, not measured here",
  "biological_target": "T1, H-2K^b (mouse MHC) (Mus musculus, UniProt P01901)",
  "T1 sequence (P01901 22-369)": "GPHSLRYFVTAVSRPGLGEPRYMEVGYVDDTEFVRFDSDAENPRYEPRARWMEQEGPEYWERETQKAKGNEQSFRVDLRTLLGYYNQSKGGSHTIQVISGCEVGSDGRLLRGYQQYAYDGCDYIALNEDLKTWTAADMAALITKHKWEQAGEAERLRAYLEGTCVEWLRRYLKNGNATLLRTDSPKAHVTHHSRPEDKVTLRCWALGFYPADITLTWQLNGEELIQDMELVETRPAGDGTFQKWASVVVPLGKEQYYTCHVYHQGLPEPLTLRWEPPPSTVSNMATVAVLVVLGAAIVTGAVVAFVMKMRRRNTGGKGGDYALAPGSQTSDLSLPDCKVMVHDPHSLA",
  "T1 sequence (P01887 21-119 partner)": "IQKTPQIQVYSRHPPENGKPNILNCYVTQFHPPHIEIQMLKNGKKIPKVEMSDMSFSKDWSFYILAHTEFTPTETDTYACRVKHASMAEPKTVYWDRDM",
  "conditions": "SIINFEKL peptide binding to H-2K^b; read-out: peptide-H-2K^b affinity IC50",
  "data": [
    {"sequence": "SIINFEKL [SIINFEKL peptide]", "values": [
      {"measurement": "IC50", "value": 900, "unit": "pM"}
    ]}
  ]
}
